The source made the active and inactive calls. Unless noted, no cut-off for these calls is given here.
How the values were obtained:
[1] = L6 myocyte viability loss – cell-based, plate reader, cherry-pick, cytotoxicity control, dose response (AID 651896); assay type: functional
[2] = antileishmanial activity on axenic amastigotes – plate reader, cherry pick, dose response (AID 651891); assay type: functional, cell-based; details: Leishmania donovani
[3] = intracellular Trypanosoma cruzi inhibitors in host cells – cell-based, plate reader, cherry-pick samples, set 3, dose response (AID 651818); assay type: functional;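 note: compounds incubated with infected cells for about four days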
[4] = African trypanosome bloodstream form growth inhibition – STIB900 strain, plate reader, cherry pick, dose response (AID 651893); assay type: functional, cell-based, Trypanosoma brucei rhodesiense; details: Trypanosoma brucei
[5] = antimalarial activity against erythrocytic parasites – NF54 strain, plate reader, dry powder, dose response (AID 651889); assay type: functional, cell-based
[6] = host muscle cell viability loss – plate reader, dry powder, counter-screen for T. cruzi inhibitor project, dose response (AID 651895); assay type: functional, cell-based
[7] = T. cruzi growth inhibition in host cells, dose response, cell-based, plate reader, dry powder, set 2 (AID 652275); assay type: functional
[8] = Trypanosoma cruzi replication inhibitors in host cells – cell-based, plate reader, dry powder samples, dose response (AID 651845); assay type: functional
[9] = anti-trypanosomal activity in BESM host cells – imaging, CA-I/72 strain, bovine embryo skeletal muscle, dry powder, dose response (AID 651885); assay type: functional, cell-based
[10] = antileishmanial activity on axenic amastigotes – plate reader, dry powder, dose response (AID 651892); assay type: functional, cell-based
[11] = intracellular Chagas parasite inhibition in myoblasts – Tulahuen strain, L-6 host cells, dry powder, dose response (AID 651890); assay type: functional, cell-based
[12] = African trypanosome bloodstream form growth inhibition – STIB900 strain, plate reader, dry powder, dose response (AID 651894); assay type: functional, cell-based
[13] = biological target: G-protein coupled receptor 183 (Homo sapiens, UniProt P32249); assay: SAR confirmation of small molecule antagonists of the EBI2 receptor via a luminescent beta-arrestin assa.; assay type: functional
Phospholipase D2 = Phospholipase D2 (Homo sapiens, UniProt O14939); assay: PLD2 Cellular Concentration Response Study.; assay type: functional
Phospholipase D1 = biological target: T1, Phospholipase D1 (Homo sapiens, UniProt Q13393); assay: PLD1 Cellular Concentration Response Study.; assay type: functional
T1 sequence (Q13393 whole entry): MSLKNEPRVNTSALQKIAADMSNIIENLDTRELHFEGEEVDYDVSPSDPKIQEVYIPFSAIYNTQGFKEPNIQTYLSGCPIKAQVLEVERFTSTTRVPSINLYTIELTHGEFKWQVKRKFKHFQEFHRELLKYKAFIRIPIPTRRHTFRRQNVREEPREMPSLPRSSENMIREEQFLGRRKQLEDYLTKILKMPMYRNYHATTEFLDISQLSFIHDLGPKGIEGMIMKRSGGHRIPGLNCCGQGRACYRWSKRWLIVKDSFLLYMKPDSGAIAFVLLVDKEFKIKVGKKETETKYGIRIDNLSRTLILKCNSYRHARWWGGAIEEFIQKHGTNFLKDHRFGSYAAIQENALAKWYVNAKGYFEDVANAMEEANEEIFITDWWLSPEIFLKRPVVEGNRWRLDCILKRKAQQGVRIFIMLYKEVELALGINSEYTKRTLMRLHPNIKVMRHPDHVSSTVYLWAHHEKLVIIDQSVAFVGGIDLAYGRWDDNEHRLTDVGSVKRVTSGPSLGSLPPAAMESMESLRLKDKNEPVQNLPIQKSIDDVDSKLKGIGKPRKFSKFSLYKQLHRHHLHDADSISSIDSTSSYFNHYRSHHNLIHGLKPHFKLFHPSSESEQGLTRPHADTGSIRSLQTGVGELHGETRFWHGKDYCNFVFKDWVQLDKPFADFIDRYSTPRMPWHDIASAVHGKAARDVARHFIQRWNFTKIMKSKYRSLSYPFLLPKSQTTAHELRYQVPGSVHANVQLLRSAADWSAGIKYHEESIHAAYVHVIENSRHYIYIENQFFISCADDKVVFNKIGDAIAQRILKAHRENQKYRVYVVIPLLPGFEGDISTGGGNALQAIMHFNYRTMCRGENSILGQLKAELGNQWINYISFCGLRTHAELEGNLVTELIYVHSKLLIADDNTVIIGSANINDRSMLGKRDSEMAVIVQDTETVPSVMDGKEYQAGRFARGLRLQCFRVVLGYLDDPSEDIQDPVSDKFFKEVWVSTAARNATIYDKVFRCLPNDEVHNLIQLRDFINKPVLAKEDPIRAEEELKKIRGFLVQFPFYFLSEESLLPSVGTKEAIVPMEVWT

[14] = IC50 of insulin release inhibition, rat insulinoma INS-1E line, 5 mM glucose, cell-based (AID 1117331); assay type: functional
[15] = glucagon-like peptide-1 release potency in STC-1, concentration-response, half-maximal inhibitory concentration in the STC-1 line (AID 1117345); assay type: functional, cell-based
[16] = Potency on glucagon-like peptide 1 release, dose-response in NCI-H716 cell line, half maximal inhibitory concentration (AID 1117344); assay type: functional, cell-based

Sequence of G-protein coupled receptor 183 (P32249 whole entry): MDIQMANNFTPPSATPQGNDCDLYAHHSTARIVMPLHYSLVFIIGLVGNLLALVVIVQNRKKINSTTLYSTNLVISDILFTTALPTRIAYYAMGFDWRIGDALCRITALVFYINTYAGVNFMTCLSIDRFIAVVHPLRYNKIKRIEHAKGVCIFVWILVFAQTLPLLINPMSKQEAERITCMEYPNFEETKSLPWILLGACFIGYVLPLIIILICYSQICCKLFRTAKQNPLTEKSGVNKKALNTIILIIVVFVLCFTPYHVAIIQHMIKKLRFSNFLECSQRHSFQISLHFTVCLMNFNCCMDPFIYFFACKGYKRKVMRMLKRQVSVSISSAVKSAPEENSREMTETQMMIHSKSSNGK
Sequence of Phospholipase D2 (O14939 whole entry): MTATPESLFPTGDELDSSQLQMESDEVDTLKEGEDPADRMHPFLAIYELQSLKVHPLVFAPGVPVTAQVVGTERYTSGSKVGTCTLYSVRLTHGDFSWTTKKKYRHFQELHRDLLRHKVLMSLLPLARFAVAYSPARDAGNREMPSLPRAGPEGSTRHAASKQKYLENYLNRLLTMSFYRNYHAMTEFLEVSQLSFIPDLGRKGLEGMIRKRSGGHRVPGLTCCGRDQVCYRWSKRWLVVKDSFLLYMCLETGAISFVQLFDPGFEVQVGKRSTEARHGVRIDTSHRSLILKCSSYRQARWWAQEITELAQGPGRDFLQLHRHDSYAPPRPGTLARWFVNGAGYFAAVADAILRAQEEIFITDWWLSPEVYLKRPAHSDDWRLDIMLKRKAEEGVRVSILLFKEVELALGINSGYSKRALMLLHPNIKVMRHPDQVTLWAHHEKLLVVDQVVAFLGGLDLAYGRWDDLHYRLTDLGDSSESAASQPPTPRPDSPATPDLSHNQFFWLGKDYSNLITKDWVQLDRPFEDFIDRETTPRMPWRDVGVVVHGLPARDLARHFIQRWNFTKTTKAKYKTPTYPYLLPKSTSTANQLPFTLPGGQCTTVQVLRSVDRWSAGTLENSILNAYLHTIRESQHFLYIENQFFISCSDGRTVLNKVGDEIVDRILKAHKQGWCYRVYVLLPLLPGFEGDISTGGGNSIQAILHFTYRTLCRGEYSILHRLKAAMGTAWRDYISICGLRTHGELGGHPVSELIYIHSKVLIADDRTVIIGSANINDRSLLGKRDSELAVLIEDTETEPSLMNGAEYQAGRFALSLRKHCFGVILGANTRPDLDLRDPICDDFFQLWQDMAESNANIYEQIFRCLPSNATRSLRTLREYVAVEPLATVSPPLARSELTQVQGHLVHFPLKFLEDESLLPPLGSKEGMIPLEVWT

SMILES: C[C@H](CO)N1C[C@H](C)[C@H](CN(C)Cc2ccc(Oc3ccccc3)cc2)Oc2c(NC(=O)c3ccncc3)cccc2C1=O
- IC50 [1]: 52.2 µM (active)
- IC50 [2]: > 100 µM (inactive)
- AC50 [3]: 0.075 µM (active)
- IC50 [4]: 18.5 µM (inactive)
- IC50 [5]: 2.32 µM (inactive)
- IC50 [6]: 54.7 µM (inactive)
- AC50 [7]: 0.00127 µM (active)
- AC50 [8]: 0.0158 µM (active)
- IC50 [9]: 0.0098 µM (active)
- IC50 [10]: > 100 µM (inactive)
- IC50 [11]: 0.0755 µM (active)
- IC50 [12]: 22.2 µM (inactive)

SMILES: O=C(/C=C/c1ccc(Cl)c(Cl)c1)N1CCN(C(=O)c2ccc(Cl)cc2)CC1
- IC50 [13]: 0.00117 µM (active)

SMILES: O=C(NCCN1CCC2(CC1)C(=O)NCN2Cc1cccnc1)c1ccc(Cl)c(Cl)c1
- IC50 (Phospholipase D2): 1.24 µM (active)
- IC50 (Phospholipase D1): 20 µM (active)

SMILES: NC(=O)C1(N2CCCCC2)CCN(CCCN2c3ccccc3CCc3ccc(Cl)cc32)CC1 [CLOCAPRAMINE]
- IC50 [14]: 10.1 µM (inactive)
- IC50 [15]: > 40 µM (inactive)
- IC50 [16]: 18.3 µM (inactive)

From ChEMBL document CHEMBL1201862, “PubChem BioAssay data set” (2004)
